Where two headings read alike, the source gives them in different places.
Legend:
Assay type in all cases: cell-based
[1] = tested on: Klebsiella spp. 12; test: MIC, serial dilutions in Müller-Hinton broth
Method in brief: (§1)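 Broth microdilution in Müller-Hinton broth following MUK 4.2.1890-04, with two-fold compound dilutions at final 1-128 ug/ml. The inoculum was set to 0.5 McFarland and diluted to 10^7 CFU/ml before addition, then plates were incubated at 37° C. for 24 hours. MIC was the lowest concentration without visible growth, taking the highest of three independent runs.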

[2] = tested on: E. faecalis 3051; test: MIC, serial dilutions in Müller-Hinton broth
Method in brief: as §1

[3] = tested on: S. aureus 1167 MRSA; test: MIC, serial dilutions in Müller-Hinton broth
Method in brief: as §1

[4] = tested on: S. haemoliticus 837 MRSA; test: MIC, serial dilutions in Müller-Hinton broth
Method in brief: as §1

[5] = tested on: Moraxella sp. 713; test: MIC, serial dilutions in Müller-Hinton broth
Method in brief: as §1

[6] = tested on: Ps. aeruginosa 1945 PR; test: MIC, serial dilutions in Müller-Hinton broth
Method in brief: as §1

[7] = tested on: Kl. pneumoniae 1953 PR; test: MIC, serial dilutions in Müller-Hinton broth
Method in brief: as §1

[8] = tested on: Ps. aeruginosa 1913 PR; test: MIC, serial dilutions in Müller-Hinton broth
Method in brief: as §1

[9] = tested on: A. baumannii 1425 PR; test: MIC, serial dilutions in Müller-Hinton broth
Method in brief: as §1

[10] = tested on: S. aureus 22; test: MIC, serial dilutions in Müller-Hinton broth
Method in brief: as §1

[11] = tested on: E. faecium 30; test: MIC, serial dilutions in Müller-Hinton broth
Method in brief: as §1

[12] = tested on: Kl. pneumoniae 1812 PR; test: MIC, serial dilutions in Müller-Hinton broth
Method in brief: as §1

[13] = tested on: E. faecium 28; test: MIC, serial dilutions in Müller-Hinton broth
Method in brief: as §1

[14] = tested on: S. aureus 1053 MRSA; test: MIC, serial dilutions in Müller-Hinton broth
Method in brief: as §1

[15] = tested on: E. faecalis 23; test: MIC, serial dilutions in Müller-Hinton broth
Method in brief: as §1

[16] = tested on: S. epidermidis 15990; test: MIC, serial dilutions in Müller-Hinton broth
Method in brief: as §1

[17] = tested on: gram-negative bacteria; test: MIC screening, summary for gram-negative bacteria
Method: A comparative assessment of the spectrum of antibacterial action was carried out on archival and clinical strains of gram-positive and gram-negative microorganisms in accordance with the [Opredeleniye chuvstvitel'nosti mikroorganizmov k antibakterial'nym preparatam (Metodicheskiye ukazaniya MUK 4.2.1890-04). Utverzhdeny i vvedeny v deystviye Glavnym gosudarstvennym sanitarnym vrachom Rossiyskoy Federatsii G. G. Onishchenko 04.03.2004 g. Determination of the sensitivity of microorganisms to antibacterial drugs (Guidelines MUK 4.2.1890-04). Approved and put into effect by the Chief State Sanitary Doctor of the Russian Federation G. G. Onishchenko on 4 Mar. 2004].
The value of the minimum inhibitory concentration (MIC) was determined by the method of serial dilutions on Müller-Hinton broth using 96-well sterile plates. Two-fold dilutions of the test substances in a nutrient medium were prepared. The final concentrations were 1-128 ug/ml. The growth of cultures was assessed visually, comparing the growth of microorganisms in the presence of test compounds with the growth of culture without them. […] The first lowest concentration of the studied substance (from a series of consecutive dilutions), where bacterial growth is not visually determined, is considered to be the minimum inhibitory concentration (MIC). MIC was determined by the method of serial dilutions in broth with increment=2, so the differences of neighboring dilutions are not considered to be significant. In each experience there is a positive (broth with growing culture) and a negative (broth without growing culture) control.
To determine the MIC, 10 μl of culture medium was taken from those wells in which growth was not observed, and inoculation was performed on a dense Müller-Hinton broth. For the preparation of the inoculum, a pure, daily culture of gram-positive and gram-negative microorganisms grown on a dense nutrient medium was used. Nutrient medium is Müller-Hinton broth, which was prepared from dry media (Müller-Hinton broth, Acumedia, Baltimore), cultivation was carried out on agarized Müller-Hinton broth, including an additional 2% agar. The media were autoclaved at 121° C. for 15 minutes. […] The inoculum was used within 15 minutes after preparation; the purity of the bacterial strains was monitored before each experiment.
100 μl of Müller-Hinton broth was added to the wells of each plate; The tested substance was introduced into the first well at a concentration of 128 μg/ml in a volume of 100 μl and its concentration was adjusted to 0.5 μg/ml by consecutive two-fold dilution. […] In addition, the purity of nutrient media and solvents was monitored. […] The growth of cultures was assessed visually, comparing the growth of microorganisms in the presence of test compounds with the growth of culture without them. […]

**Q.** With “alkyldimethyl(phenylmethyl) ammonium chloride [Benzalconium chloride]” as the molecule, how does the MIC ([1]; Klebsiella spp. 12, inoculum 10^7 CFU/ml) read?
**A.** 2 µg/mL

**Q.** What about the MIC ([2]; E. faecalis 3051, inoculum 10^7 CFU/ml) of the same molecule?
**A.** 2 µg/mL

**Q.** What about the MIC ([3]; S. aureus 1167 MRSA, inoculum 10^7 CFU/ml) of the same molecule?
**A.** 2 µg/mL

**Q.** What about the MIC ([4]; S. haemoliticus 837 MRSA, inoculum 10^7 CFU/ml) of the same molecule?
**A.** 16 µg/mL

**Q.** And the MIC ([5]; Moraxella sp. 713, inoculum 10^7 CFU/ml)?
**A.** 4 µg/mL

**Q.** What about the MIC ([6]; Ps. aeruginosa 1945 PR, inoculum 10^7 CFU/ml) of the same molecule?
**A.** >64 µg/mL

**Q.** What about the MIC ([7]; Kl. pneumoniae 1953 PR, inoculum 10^7 CFU/ml) of the same molecule?
**A.** 16 µg/mL

**Q.** And the MIC ([8]; Ps. aeruginosa 1913 PR, inoculum 10^7 CFU/ml)?
**A.** >64 µg/mL

**Q.** And the MIC ([9]; A. baumannii 1425 PR, inoculum 10^7 CFU/ml)?
**A.** 32 µg/mL

**Q.** What about the MIC ([10]; S. aureus 22, inoculum 10^7 CFU/ml) of the same molecule?
**A.** <0.5 µg/mL

**Q.** What about the MIC ([11]; E. faecium 30, inoculum 10^7 CFU/ml) of the same molecule?
**A.** <0.5 µg/mL

**Q.** And the MIC ([12]; Kl. pneumoniae 1812 PR, inoculum 10^7 CFU/ml)?
**A.** 64 µg/mL

**Q.** And the MIC ([13]; E. faecium 28, inoculum 10^7 CFU/ml)?
**A.** <0.5 µg/mL

**Q.** What about the MIC ([14]; S. aureus 1053 MRSA, inoculum 10^7 CFU/ml) of the same molecule?
**A.** 4 µg/mL

**Q.** What about the MIC ([15]; E. faecalis 23, inoculum 10^7 CFU/ml) of the same molecule?
**A.** <0.5 µg/mL

**Q.** And the MIC ([16]; S. epidermidis 15990, inoculum 10^7 CFU/ml)?
**A.** 1 µg/mL

**Q.** CCCCCCCCCCCC[N+](C)(C)Cc1cnc(C[N+](C)(C)CCCCCCCCCCCC)c2c1COC(CC)O2 (stereo not shown) [Compound I, 5,8-(Bis(methylene (N, N-dimethyl-N-dodecylammonium))-2-ethyl-4H-[1,3]dioxino [4,5-c]pyridiniumdichloride] was tested. Which MIC ([1]; Klebsiella spp. 12, inoculum 10^7 CFU/ml, read-out: MIC) did it give?
**A.** 16 µg/mL

**Q.** What about the MIC ([2]; Enterococcus faecalis, E. faecalis 3051, inoculum 10^7 CFU/ml, read-out: MIC) of the same molecule?
**A.** 4 µg/mL

**Q.** And the MIC ([3]; Staphylococcus aureus, S. aureus 1167 MRSA, inoculum 10^7 CFU/ml, read-out: MIC)?
**A.** 4 µg/mL

**Q.** And the MIC ([4]; S. haemoliticus 837 MRSA, inoculum 10^7 CFU/ml, read-out: MIC)?
**A.** 8 µg/mL

**Q.** And the MIC ([5]; Moraxella sp. 713, inoculum 10^7 CFU/ml, read-out: MIC)?
**A.** 8 µg/mL

**Q.** What about the MIC ([6]; Pseudomonas aeruginosa, Ps. aeruginosa 1945 PR, inoculum 10^7 CFU/ml, read-out: MIC) of the same molecule?
**A.** 64 µg/mL

**Q.** What about the MIC ([7]; Klebsiella pneumoniae, Kl. pneumoniae 1953 PR, inoculum 10^7 CFU/ml, read-out: MIC) of the same molecule?
**A.** 2 µg/mL

**Q.** What about the MIC ([8]; Pseudomonas aeruginosa, Ps. aeruginosa 1913 PR, inoculum 10^7 CFU/ml, read-out: MIC) of the same molecule?
**A.** 64 µg/mL

**Q.** What about the MIC ([9]; Acinetobacter baumannii, A. baumannii 1425 PR, inoculum 10^7 CFU/ml, read-out: MIC) of the same molecule?
**A.** 8 µg/mL

**Q.** And the MIC ([10]; Staphylococcus aureus, S. aureus 22, inoculum 10^7 CFU/ml, read-out: MIC)?
**A.** 1 µg/mL

**Q.** What about the MIC ([11]; Enterococcus faecium, E. faecium 30, inoculum 10^7 CFU/ml, read-out: MIC) of the same molecule?
**A.** 0.03 µg/mL

**Q.** And the MIC ([12]; Klebsiella pneumoniae, Kl. pneumoniae 1812 PR, inoculum 10^7 CFU/ml, read-out: MIC)?
**A.** 64 µg/mL

**Q.** And the MIC ([13]; Enterococcus faecium, E. faecium 28, inoculum 10^7 CFU/ml, read-out: MIC)?
**A.** 0.03 µg/mL

**Q.** What about the MIC ([14]; Staphylococcus aureus, S. aureus 1053 MRSA, inoculum 10^7 CFU/ml, read-out: MIC) of the same molecule?
**A.** 2 µg/mL

**Q.** What about the MIC ([15]; Enterococcus faecalis, E. faecalis 23, inoculum 10^7 CFU/ml, read-out: MIC) of the same molecule?
**A.** 0.03 µg/mL

**Q.** And the MIC ([16]; Staphylococcus epidermidis, S. epidermidis 15990, inoculum 10^7 CFU/ml, read-out: MIC)?
**A.** 4 µg/mL

**Q.** And the MIC ([17]; in 11 strains)?
**A.** 2 to 4 µg/mL

**Q.** And the MIC ([17]; in 12 strains)?
**A.** 32 to 64 µg/mL

**Q.** What about the MIC ([17]; in 18 strains) of the same molecule?
**A.** 8 to 16 µg/mL

**Q.** What does the source list for CCCCCCCCCCCCCC(=O)NCCC[N+](C)(C)Cc1ccccc1.O.[Cl-] [Miramistin, benzyldimethyl [3-(myristoylamino)propyl]-ammonium chloride monohydrate]?
**A.** MIC ([1]; Klebsiella, SPP.12): > 64 µg/mL; MIC ([2]; Enterococcus faecalis, 3051): 2 µg/mL; MIC ([3]; Staphylococcus aureus, MRSA): 4 µg/mL; MIC [4]: 64 µg/mL; MIC ([5]; Moraxella, SP.713): 32 µg/mL; MIC ([6]; Pseudomonas aeruginosa, 1945PR): > 64 µg/mL; MIC ([7]; Klebsiella pneumoniae, 1953PR): 64 µg/mL; MIC ([8]; Pseudomonas aeruginosa, 1913PR): > 64 µg/mL; MIC ([9]; Acinetobacter baumannii, 1425PR): 64 µg/mL; MIC ([10]; Staphylococcus aureus, 22): 8 µg/mL; MIC ([11]; Enterococcus faecium, 30): < 0.5 µg/mL; MIC ([12]; Klebsiella pneumoniae, 1812PR): 64 µg/mL; MIC ([13]; Enterococcus faecium, 28): 32 µg/mL; MIC ([14]; Staphylococcus aureus, MRSA): 4 µg/mL; MIC ([15]; Enterococcus faecalis, 23): 4 µg/mL; MIC ([16]; Staphylococcus epidermidis, 15990): 8 µg/mL; MIC ([17]; Escherichia coli, ATCC25922, range, with the exception for the archival strain E. coli ATCC 25922): 32 to 64 µg/mL
